The text below walks through data of patent US20250236616A1, “IMMUNOMODULATING AZALIDES” (Zoetis Services LLC, priority 2021, published 2025).

Common to all, as to format: cell-based
Assay [1] deals with TNF-α. Description: Whole bovine blood assay, LPS-induced TNF-α. The settings on record: fresh whole bovine blood, LPS stimulant. Put shortly:
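Fresh heparinized bovine whole blood was preincubated with compound 4 h at 37 °C, then stimulated with LPS (final 1 μg/mL) for 18 h at 37 °C. Plasma TNF-α was quantified by MSD U-Plex chemiluminescent immunoassay, normalized to total protein (BCA), and IC50 taken for LPS-induced TNF-α inhibition.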

The test system of assay [2] is IL-1β. As to the kind of experiment: Whole bovine blood assay, LPS-induced IL-1β (inhibition / overstimulation). To be noted: drug concentration giving overstimulation (OS) of LPS-induced IL-1β. As to the method:
Whole Blood Assay-Fresh whole bovine blood samples were collected into heparinized vacutainer tubes. Assay plates were prepared with 25 μL of drug diluted in PBS at varying concentration in 96 round bottom wells, then 225 μL of blood was added and plates incubated at 37° C. for 4 hours. Cells were stimulated with LPS (or PBS for controls) by adding 25 μL to the plates at a final concentration of 1 μg/mL and incubated at 37° C. for 18 hours. To collect plasma, plates were centrifuged at 2,000×g for 10 minutes and 100 μL of supernatant was transferred to a 96 well polypropylene plate that was sealed and stored at −80° C. Samples were assayed for cytokines using the Meso Scale Discovery (MSD) platform (described below). This same MSD platform was used to assess cytokines in the plasma collected directly from drug treated animals.
Cytokine Detection—An MSD U-Plex cytokine assay was developed following the MSD U-Plex protocol guide and included biotinylated capture antibodies against: bovine Interleukin (IL)-1β (Biorad), bovine IL-6 (R&D Systems) and bovine tumor necrosis factor (TNF)-α (R&D Systems). The anti-IL-1β antibody was biotinylated using EZ-Link Sulfo-NHS-Biotin (Thermo Scientific) at a challenge ratio of 1:20 according to manufacturer instructions. Assay calibrators (Kingfisher) were diluted to a concentration of […] in control lithium heparin plasma, followed by 4-fold serial dilutions into plasma. The detection antibodies were sulfo-tagged following the MSD quick guide conjugation protocol using a challenge ratio of 1:20. Antibodies were used at the following concentrations: anti-IL-1β at 1 μg/mL, anti-IL-6 at 1 μg/mL and anti-TNF-α at 0.5 μg/mL. Cytokines were quantified according to manufacturer's instructions using a chemiluminescent readout. In brief, 0.5 mL of all biotinylated antibodies were diluted to 10 μg/mL with Diluent 100 and paired to their respective linkers by adding 750 μL of supplied Linker solution and incubated for 30 minutes followed by addition of Stop solution for another 30 minutes. The linked antibodies were then diluted 10-fold into Stop solution. Plates were coated by adding 50 μL of antibody solutions per well and incubated covered and shaking for 1 hour at room temperature. Plates were washed three times with PBS/Tween20 prior to samples or standards being added at 30 μL per well and incubated as above. Plates were washed three times before detection antibodies were added along with 2% goat and rabbit serum to block and incubated same as above. Plates were washed a further three times before addition of 150 μL 2X Read buffer and read immediately on the SI6000 instrument (MSD). For soluble protein levels, a BCA protein kit (Thermofisher) was used. The cytokine concentrations (pg/mL) were normalized to the total protein levels for each sample. [Bassel et. al., BMC Veterinary Research (2020) 16:168]
Therefore, a fresh whole bovine blood assay was developed with LPS as a stimulant (TLR-4 agonist) and with IL-1β and TNF-α as the read-out. Compounds of the invention were evaluated against a positive control for their ability to inhibit LPS-induced IL-1β and TNF-α as an overall evaluation of relative potency and modulation of target pathways.
For M9, the top dose of 500 μM was not high enough to determine an overstimulation of IL-1 B which was recorded as not applicable (n/a). The enhanced response indicates increased concentration of IL-1β cytokine at the drug concentration indicated. This is generally observed when compounds are out of range (high concentration) and stimulate a cellular toxicity signal. Further data supporting this hypothesis includes murine studies using a P. multocida infection in mice.
TNFα is a cell signaling protein, cytokine, that plays a key role in both acute and chronic inflammation. […]

The test system of assay [3] is IL-6. As to the kind of experiment: Whole bovine blood assay, LPS-induced IL-6. To be noted: fresh whole bovine blood, LPS stimulant; top drug concentration 250 μM.

As usually defined, the IC50 is the midpoint of a concentration-inhibition curve. Higher therefore signals weaker potency in that assay. As a reminder, the minimal effective concentration is the lowest level tested that produced the effect sought. Read a low minimal effective concentration as greater potency.

Turning to `CCCNC[C@]1(O)[C@H](C)O[C@@H](O[C@H]2[C@H](C)[C@@H](O[C@@H]3O[C@H](C)C[C@H](N(C)S(=O)(=O)CC4CC4)[C@H]3O)[C@](C)(O)C[C@@H](C)CN[C@H](C)[C@@H](O)[C@](C)(O)[C@@H](CC)OC(=O)[C@@H]2C)C[C@@]1(C)OC` [Example B-10], the 50% inhibitory concentration (IC50) in assay [1] (top drug concentration 250 μM) stood at 33 µM. Besides, the minimal effective concentration in assay [2] (top concentration 250 μM) turned out to be 15 µM.

`CCCNC[C@]1(O)[C@H](C)O[C@@H](O[C@H]2[C@H](C)[C@@H](O[C@@H]3O[C@H](C)C[C@H](N(C)S(=O)(=O)c4ccc(-n5cccn5)cc4)[C@H]3O)[C@](C)(O)C[C@@H](C)CN[C@H](C)[C@@H](O)[C@](C)(O)[C@@H](CC)OC(=O)[C@@H]2C)C[C@@]1(C)OC` [Example B-19] showed an IC50 in assay [1] (top drug concentration 250 μM) of 30 µM. The minimal effective concentration in assay [2] (top concentration 250 μM) is reported as 16 µM.

For `CC[C@H]1OC(=O)[C@H](C)[C@@H](O[C@H]2C[C@@](C)(OC)[C@](O)(CNCCCN(C)C)[C@H](C)O2)[C@H](C)[C@@H](O[C@@H]2O[C@H](C)C[C@H](N(C)S(=O)(=O)Nc3ccc(C(F)(F)F)cc3)[C@H]2O)[C@](C)(O)C[C@@H](C)CN[C@H](C)[C@@H](O)[C@]1(C)O` [Example B-74], in assay [1] (top drug concentration 250 μM), half-maximal inhibition (IC50) required 33 µM. This compound displayed a minimal effective concentration in assay [2] (top concentration 250 μM) of 16 µM.

On to `CCCN1C[C@H](C)C[C@@](C)(O)[C@H](O[C@@H]2O[C@H](C)C[C@H](N(C)S(N)(=O)=O)[C@H]2O)[C@@H](C)[C@H](O[C@H]2C[C@@](C)(OC)[C@](O)(CN3CCCCC3)[C@H](C)O2)[C@@H](C)C(=O)O[C@H](CC)[C@@](C)(O)[C@H](O)[C@H]1C` [Example C-17], for which inhibition in assay [1] (top drug concentration 250 μM) was half-maximal at 23 µM (IC50). In assay [2] (top concentration 250 μM), this compound registered a minimal effective concentration of 250 µM.

As for `CCCNC[C@]1(O)[C@H](C)O[C@@H](O[C@H]2[C@H](C)[C@@H](O[C@@H]3O[C@H](C)C[C@H](N(C)S(=O)(=O)c4ccc(C#N)cc4)[C@H]3O)[C@](C)(O)C[C@@H](C)CN[C@H](C)[C@@H](O)[C@](C)(O)[C@@H](CC)OC(=O)[C@@H]2C)C[C@@]1(C)OC` [Example B-13], in assay [1] (top drug concentration 250 μM), the IC50 is above 250 µM. The same compound had a minimal effective concentration in assay [2] (top concentration 250 μM) of 100 µM.

The compound `CCCNC[C@]1(O)[C@H](C)O[C@@H](O[C@H]2[C@H](C)[C@@H](O[C@@H]3O[C@H](C)C[C@H](N(C)S(=O)(=O)c4ccc(S(C)(=O)=O)cc4)[C@H]3O)[C@](C)(O)C[C@@H](C)CN[C@H](C)[C@@H](O)[C@](C)(O)[C@@H](CC)OC(=O)[C@@H]2C)C[C@@]1(C)OC` [Example B-11] showed a minimal effective concentration in assay [2] (top concentration 250 μM) above 250 µM.

`CC[C@H]1OC(=O)[C@H](C)[C@@H](O)[C@H](C)[C@@H](O[C@@H]2O[C@H](C)C[C@H](N(C)S(=O)(=O)c3ccccc3)[C@H]2Oc2ccc(OC)cc2)[C@](C)(O)C[C@@H](C)CN(C)[C@H](C)[C@@H](O)[C@]1(C)O` [Example A-1] came in with an IC50 in assay [1] (top drug concentration 250 μM) of 22 µM. The compound further had a minimal effective concentration in assay [2] (top concentration 250 μM) of 16 µM.

On to `CCCNC[C@]1(O)[C@H](C)O[C@@H](O[C@H]2[C@H](C)[C@@H](O[C@@H]3O[C@H](C)C[C@H](N(C)S(=O)(=O)c4ccc(S(N)(=O)=O)cc4)[C@H]3O)[C@](C)(O)C[C@@H](C)CN[C@H](C)[C@@H](O)[C@](C)(O)[C@@H](CC)OC(=O)[C@@H]2C)C[C@@]1(C)OC` [Example B-15], for which, in assay [2] (top concentration 250 μM), the minimal effective concentration is recorded as above 250 µM.

Regarding `CC[C@H]1OC(=O)[C@H](C)[C@@H](O[C@H]2C[C@@](C)(OC)[C@](O)(CNCCOC)[C@H](C)O2)[C@H](C)[C@@H](O[C@@H]2O[C@H](C)C[C@H](N(C)S(=O)(=O)c3ccc(Cl)cc3)[C@H]2O)[C@](C)(O)C[C@@H](C)CN[C@H](C)[C@@H](O)[C@]1(C)O` [Example B-36], in assay [1] (top drug concentration 250 μM), the IC50 stood at 29 µM. Besides, the minimal effective concentration in assay [2] (top concentration 250 μM) was 16 µM.

`CCCNC[C@]1(O)[C@H](C)O[C@@H](O[C@H]2[C@H](C)[C@@H](O[C@@H]3O[C@H](C)C[C@H](N(C)S(=O)(=O)c4ccc(OC)cc4)[C@H]3O)[C@](C)(O)C[C@@H](C)CN[C@H](C)[C@@H](O)[C@](C)(O)[C@@H](CC)OC(=O)[C@@H]2C)C[C@@]1(C)OC` [Example B-18] showed an IC50 in assay [1] (dose of 500 μM (footnote ^)) of 15 µM. The compound further gave a minimal effective concentration in assay [2] (dose of 500 μM (footnote ^)) of 32 µM.

Compound `CC[C@H]1OC(=O)[C@H](C)[C@@H](O[C@H]2C[C@@](C)(OC)[C@](O)(CNCCCN3CCCCC3)[C@H](C)O2)[C@H](C)[C@@H](O[C@@H]2O[C@H](C)C[C@H](N(C)S(=O)(=O)Nc3ccc(C(F)(F)F)cc3)[C@H]2O)[C@](C)(O)C[C@@H](C)CN[C@H](C)[C@@H](O)[C@]1(C)O` [Example B-75] displayed an IC50 in assay [1] (top drug concentration 250 μM) of 31 µM. The compound further returned a minimal effective concentration in assay [2] (top concentration 250 μM) above 250 µM.

In turn, `CCCNC[C@]1(O)[C@H](C)O[C@@H](O[C@H]2[C@H](C)[C@@H](O[C@@H]3O[C@H](C)C[C@H](N(C)S(N)(=O)=O)[C@H]3O)[C@](C)(O)C[C@@H](C)CN[C@H](C)[C@@H](O)[C@](C)(O)[C@@H](CC)OC(=O)[C@@H]2C)C[C@@]1(C)OC` [Example B-140] yielded a minimal effective concentration in assay [2] (top concentration 250 μM) above 250 µM.

With `CCCNC[C@]1(O)[C@H](C)O[C@@H](O[C@H]2[C@H](C)[C@@H](O[C@@H]3O[C@H](C)C[C@H](N(C)S(=O)(=O)N(C)c4ccc(C#N)cc4)[C@H]3O)[C@](C)(O)C[C@@H](C)CN[C@H](C)[C@@H](O)[C@](C)(O)[C@@H](CC)OC(=O)[C@@H]2C)C[C@@]1(C)OC` [Example B-62], the minimal effective concentration in assay [2] (top concentration 250 μM) was found to be 3 µM.

In assay [2] (top concentration 250 μM), `CCCNC[C@]1(O)[C@H](C)O[C@@H](O[C@H]2[C@H](C)[C@@H](O[C@@H]3O[C@H](C)C[C@H](N(C)S(=O)(=O)c4ccccc4)[C@H]3Oc3ccc(Cl)cn3)[C@](C)(O)C[C@@H](C)CN[C@H](C)[C@@H](O)[C@](C)(O)[C@@H](CC)OC(=O)[C@@H]2C)C[C@@]1(C)OC` [Example B-135] came in with a minimal effective concentration of 6 µM.

Regarding `CCCNC[C@]1(O)[C@H](C)O[C@@H](O[C@H]2[C@H](C)[C@@H](O[C@@H]3O[C@H](C)C[C@H](N(C)S(=O)(=O)c4nccn4C)[C@H]3Oc3ccc(OC)cc3)[C@](C)(O)C[C@@H](C)CN[C@H](C)[C@@H](O)[C@](C)(O)[C@@H](CC)OC(=O)[C@@H]2C)C[C@@]1(C)OC` [Example B-119], the minimal effective concentration in assay [2] (top concentration 250 μM) is 6 µM.

Take `CCCNC[C@]1(O)[C@H](C)O[C@@H](O[C@H]2[C@H](C)[C@@H](O[C@@H]3O[C@H](C)C[C@H](N(C)S(=O)(=O)c4c(C)noc4C)[C@H]3O)[C@](C)(O)C[C@@H](C)CN[C@H](C)[C@@H](O)[C@](C)(O)[C@@H](CC)OC(=O)[C@@H]2C)C[C@@]1(C)OC` [Example B-4]: the minimal effective concentration in assay [2] (top concentration 250 μM) is recorded as 40 µM.

On to `CC[C@H]1OC(=O)[C@H](C)[C@@H](O[C@H]2C[C@@](C)(OC)[C@](O)(CN3CCCCC3)[C@H](C)O2)[C@H](C)[C@@H](O[C@@H]2O[C@H](C)C[C@H](N(C)S(=O)(=O)Nc3ccc(Cl)c(Cl)c3)[C@H]2O)[C@](C)(O)C[C@@H](C)CN[C@H](C)[C@@H](O)[C@]1(C)O` [Example C-28], for which the IC50 in assay [1] (top drug concentration 250 μM) and in assay [3] was 25 µM throughout.

Turning to `CCCNC[C@]1(O)[C@H](C)O[C@@H](O[C@H]2[C@H](C)[C@@H](O[C@@H]3O[C@H](C)C[C@H](N(C)S(=O)(=O)c4ccc(C#N)nc4)[C@H]3O)[C@](C)(O)C[C@@H](C)CN[C@H](C)[C@@H](O)[C@](C)(O)[C@@H](CC)OC(=O)[C@@H]2C)C[C@@]1(C)OC` [Example B-17], in assay [2] (top concentration 250 μM), the minimal effective concentration was 100 µM.
